Assays:
Teredo navalis = assay: Marine field test according to EN 275: rating of attack on tralopyril impregnated Scots pine sapwood by T. navalis; format: in vivo; parameters: key: 0: No destruction No visible tunnel or destruction by marine organisms; Little destruction Tunnels are one or a few number and up to cover 15% of total sample area; Moderate destruction Tunnels cover between 15-25% of total sample area; 3: Violent destruction Tunnels cover between 25-50% of total sample area; 4: Fully destruction Tunnels covered more than 50% of total sample area; —: some samples were destroyed the second year (indicated by ‘-’ in Table 1); settings: single wood samples; tralopyril retention 1087 g/m^3 (solvent based formulation, methanol); 1 year in seawater
Experimental: (§1) The effectiveness to reduce the presence of marine woodborers in wood situated in a marine environment was determined using the guidelines and recommendations in EN 275: 1992—wood preservatives—determination of the protective effectiveness against marine woodborers.
(§2) Wood Material The wood material used for both control groups (untreated) and test groups was Scots pine sapwood (Pinus sylvestris L.). The size of the wood samples was 25×70×200 mm and all pine specimens were pure sapwood and free from defects.
Full cell Impregnation Procedure: • place specimens into a treatments vessel (e.g. an exsiccator) • pull vacuum until 7 hPa is reached and hold said vacuum for 15 minutes • flood specimens under vacuum with treatment solution until the specimens are completely immersed • release vacuum and make sure that samples stay completely immersed while ambient pressure presses treatment solution into the specimens • leave specimens for further 2 hours immersed in the treatment solution • subsequently remove the specimens from the treatment solution, drain drip off solution for some minutes and place the specimens container on inert supports. • keep specimens in the closed container for 3 days (over weekend) for fixation, subsequently open the lid every day a bit more and remove it completely after 4 days • dry specimens in the open container at room temperature further 3 days […]

Limnoria lignorum = assay: Marine field test according to EN 275: rating of attack on tralopyril impregnated Scots pine sapwood by Limnoria l.; format: in vivo; parameters: key to Rating of attack by Limnoria l. 1st year / Rating of attack by Limnoria l. 2nd year: 0: No destruction No visible tunnel or destruction by marine organisms; Little destruction Tunnels are one or a few number and up to cover 15% of total sample area; Moderate destruction Tunnels cover between 15-25% of total sample area; 3: Violent destruction Tunnels cover between 25-50% of total sample area; 4: Fully destruction Tunnels covered more than 50% of total sample area; —: some samples were destroyed the second year (indicated by ‘-’ in Table 1); settings: for Rating of attack by Limnoria l. 1st year, average / Rating of attack by Limnoria l. 2nd year, average: average of samples, scale 0-4; for Rating of attack by Limnoria l. 1st year, average / Rating of attack by Limnoria l. 1st year: 1 year in seawater; for Rating of attack by Limnoria l. 2nd year, average / Rating of attack by Limnoria l. 2nd year: 2 years in seawater; for Rating of attack by Limnoria l. 1st year / Rating of attack by Limnoria l. 2nd year: single wood samples
Experimental: as §1, §2
Full cell Impregnation Procedure: • place specimens into a treatments vessel (e.g. an exsiccator) • pull vacuum until 7 hPa is reached and hold said vacuum for 15 minutes • flood specimens under vacuum with treatment solution until the specimens are completely immersed • release vacuum and make sure that samples stay completely immersed while ambient pressure presses treatment solution into the specimens • leave specimens for further 2 hours immersed in the treatment solution • subsequently remove the specimens from the treatment solution, drain drip off solution for some minutes and place the specimens container on inert supports. • keep specimens in the closed container for 3 days (over weekend) for fixation, subsequently open the lid every day a bit more and remove it completely after 4 days • dry specimens in the open container at room temperature further 3 days
1a) Water Dilutable Formulation (Emulsifiable Concentrate)
Tralopyril dissolved in methanol (1600 ppm and 400 ppm).
1a) water dilutable formulation : 228 g and 846 g a.i./ m^3
1b) solvent based formulation : 1087 g a.i./ m^3
Bay (Gullmar fjord) outside the Kristineberg Marine Research Station, 100 km north of Gothenburg, Sweden.
Temperature and salinity of water: Temperature varies between (18-22)° C. in the summer and −1.5° C. in mid-winter. Salinity varies between 26 g/kg and 34 g/kg. Good oxygen level due to a strong water flow.
Borer activity: there is borer activity all around the year. […] The criterion for failure due to Teredo attack (tunnels covering more than 50% of the specimen area as it appears on the X-ray film) is often fulfilled already within 6 months for untreated control specimens. Maximum “service” life of untreated controls is approximately 1.5 years, after which the samples are often broken to pieces by the autumn storms.
Specimens were hung on nylon-bars (diameter =24 mm) of two ladder-like rigs placed on the sea bottom at 6±0.4 m depth at low tide. The test rigs have heavy concrete foundations and each rig was kept upright by a 50 cm diameter buoy. As a result of the arrangement, the specimens are located at depths varying from 4 m to 6.5 m below water surface during the exposure period.
Gribbles: Limnoria lignorum (present but not very active)

[1] = tralopyril retention 1087 g/m^3
[2] = tralopyril retention 228 g/m^3 (water dilutable formulation)
[3] = tralopyril retention 846 g/m^3 (water dilutable formulation)
[4] = tralopyril retention 1087 g/m^3 (solvent based formulation, methanol)

N#Cc1c(-c2ccc(Cl)cc2)[nH]c(C(F)(F)F)c1Br [tralopyril, 4-bromo-2-(4-chlorophenyl)-5-(trifluoromethyl)-1H-pyrrole-3-carbonitrile]
Rating of attack by T. navalis 1st year (Teredo navalis): 0
Rating of attack by Limnoria l. 1st year, average (Limnoria lignorum; tralopyril retention 228 g/m^3): 0.0
Rating of attack by Limnoria l. 2nd year, average (Limnoria lignorum; tralopyril retention 228 g/m^3): 0.0
Rating of attack by Limnoria l. 1st year, average (Limnoria lignorum; tralopyril retention 846 g/m^3): 0.0
Rating of attack by Limnoria l. 2nd year, average (Limnoria lignorum; tralopyril retention 846 g/m^3): 0.0
Rating of attack by Limnoria l. 1st year, average (Limnoria lignorum; [1]): 0.0
Rating of attack by Limnoria l. 2nd year, average (Limnoria lignorum; [1]): 0.0
Rating of attack by Limnoria l. 1st year (Limnoria lignorum; [2]): 0
Rating of attack by Limnoria l. 2nd year (Limnoria lignorum; [2]): 0
Rating of attack by Limnoria l. 1st year (Limnoria lignorum; [3]): 0
Rating of attack by Limnoria l. 2nd year (Limnoria lignorum; [3]): 0
Rating of attack by Limnoria l. 1st year (Limnoria lignorum; [4]): 0
Rating of attack by Limnoria l. 2nd year (Limnoria lignorum; [4]): 0
